Data: patent US10889609B2, “Mannitol-based amphipathic compound and use thereof” (Industry-University Cooperation Foundation Hanyang …, priority 2015, dated 2021)
Where “and” joins values, the source holds several entries; their conditions need not be identical. Identical values can stand only once.

Key:
boron transporter (Bor1) = target: T1, boron transporter (Bor1) (Arabidopsis thaliana, UniProt Q8VYR7); assay: Structural stability and extraction of Bor1 by heat fluorescence size exclusion chromatography (hFSEC); conditions: for level of Bor1 protein aggregation after heat treatment: 40° C. for 10 minutes, FIG. 18
T1 construct: made in house; host or cells: Saccharomyces cerevisiae FGY217
Procedure: An experiment for measuring the structural stability of a boron transporter (Bor1) by the MNAs was performed. The structural stability of Bor1 was measured using heat fluorescence size exclusion chromatography (hFSEC), and the concentrations of the MNAs and DDM were CMC plus 0.04% by weight. Specifically, Bor1 of Arabidopsis thaliana was expressed in Saccharomyces cerevisiae FGY217 cells as a fusion protein having a C-terminal GFP-His tag. The cells were grown in a -URA medium supplemented with 0.1% glucose. Expression of proteins was induced by adding 2% galactose, and the cells were then cultured at 20° C. for 18 hours. Here, the cell culture was carried out according to the method described in the article by D. Drew et al. (Nat. Protoc. 2008, 3, 784-798.). The cells were collected to prepare membranes, and the cell collection was carried out according to the method described in the article by J. Leung et al. (Protein Expr. Purif. 2010, 72, 139-146.). The membranes including the Bor1-GFP fusion protein were diluted with phosphate-buffered saline (PBS, pH 7.4) until the final concentration of the total proteins reached 2.8 mg/mL. In this case, 1% by weight of DDM or 1% by weight of MNA (MNA-1, MNA-2, MNA-3, MNA-4, MNA-5, MNA-6, or MNA-7) was added to the PBS. Samples were incubated for an hour while shaking at 4° C., and insoluble materials were then removed by centrifugation at 14,000 g and 4° C. for an hour. The supernatant including the dissolved protein samples was heated at 40° C. for 10 minutes, and the strongly aggregated proteins were removed by centrifugation at 14,000 g and 4° C. for 10 minutes. 200 μL of the supernatant of the samples was injected into a Superose 6 10/300 column equilibrated with 20 mM Tris (pH 7.5), 150 mM NaCl, and 0.03% DDM. Each of elution fractions was collected in 200 μL fractions at a retention volume of 6.4 mL (e.g., 6.4 mL after elusion) in a clear bottom 96-well plate. The GFP fluorescence of each of the fractions was measured at an excitation wavelength of 470 nm and an emission wavelength of 512 nm.

[1] = Critical micellar concentration (CMC) by hydrophobic fluorescence stain diphenylhexatriene (DPH); type: physicochemical
Source text: A method of measuring the CMC is not particularly limited, but the methods widely known in the related art may be used. For example, the CMC may be measured by a fluorescence detection method using diphenylhexatriene (DPH).
(§1) To determine characteristics of the MNAs of Preparative Example 1 to 10 synthesized according to the synthesis method of Example 1, the molecular weights (M.W.) and critical micellar concentrations (CMCs) of the MNAs and the hydrodynamic radii (Rh) of the formed micelles were measured.
(§2) Specifically, the critical micellar concentration (CMC) was measured using a hydrophobic fluorescence stain (diphenylhexatriene (DPH)), and the hydrodynamic radii (Rh) of the micelles formed by each of the preparations were measured by a dynamic light scattering (DLS) experiment. The measured results were compared to those of DDM that is a conventional amphipathic molecule (a detergent), and are listed in Table 1.

[2] = Hydrodynamic radius and size distribution of micelles by dynamic light scattering (DLS); type: physicochemical
Source text: A method of measuring the radius of the micelle is not particularly limited, but the methods widely known in the related art may be used. For example, the radius of the micelle may be measured using a dynamic light scattering (DLS) experiment.
as §1, §2
Meanwhile, the size distributions of the micelles formed by the MNAs were measured using DLS, and the measurement results are shown in FIG. 17. The MNAs were used at a content of 1.0% by weight.

[3] = target: T2, human β2 adrenergic receptor (β2AR) (Homo sapiens, UniProt P07550); assay: mBBr-β2AR bimane spectra at detergent concentration below CMC; type: biochemical; conditions: detergent diluted to a fiftieth of its CMC, compared to DDM, FIG. 21
T2 construct: made in house
Procedure: Experiments for comparing the structural changes of the β2AR protein by the MNAs and DDM at a concentration below CMCs of the amphipathic molecules were performed.
Specifically, 0.5 μL of a non-ligand mBBr-labeled receptor dissolved at 50 μNI in a 20×CMC concentration of MNA-5, MNA-6, or MNA-7 was diluted with 500 μL of an NH buffer (20 mM HEPES pH 7.5, and 100 mM NaCl). The proteins were cultured for 30 minutes, and the bimane spectra thereof were measured. The receptor dissolved in 0.1% DDM was diluted with the NH buffer, and used as the control. Data was presented as an average of three separate experiments performed in triplicate.

[4] = target: T2, human β2 adrenergic receptor (β2AR); assay: Negative-stain electron microscopy (EM) of β2AR dissolved in detergent; conditions: negative staining, compared to DDM, FIG. 24
Procedure: A β2AR protein analysis test was performed for DDM, MNA-6, or MNA-7 using an electron microscope.
Specifically, samples were prepared using the conventional negative staining protocol disclosed in the article by M. Ohi et al. (Biol. Proced. Online 2004, 6, 23-34.). In summary, 3 μL of β2AR dissolved in DDM, MNA-6, or MNA-7 was pipetted onto a glow-discharged carbon-coated grid, and stained with 1% (w/v) uranyl formate. Thereafter, the β2AR was imaged at room temperature by running a Morgagni 268(D) transmission electron microscope (FEI Company) at 100 kV. The images were recorded at 30,416×calibrated magnification using an Orius SC200W CCD camera (Gatan Inc.).

[5] = target: T2, human β2 adrenergic receptor (β2AR); assay: Size exclusion chromatography (SEC) of β2AR protein-detergent complexes (PDCs); conditions: Superdex-200, FIG. 23
Procedure: An SEC analysis was performed to determine the size of the protein-amphipathic molecule complex (i.e., a protein-detergent complex (PDC)) formed by DDM, MNA-6, or MNA-7.
Specifically, the β2AR dissolved in DDM, MNA-6 or MNA-7 was used as a test sample in the same manner as used in Example 5-3. The sample was loaded onto a Superdex-200 10/300 GL column (GE Healthcare) at 0.5 ml/min, an innate tryptophane fluorescence signal was measured at an excitation wavelength of 295 nm and an emission wavelength of 345 nm. A running buffer includes 20 mM HEPES pH 7.5, 100 mM NaCl, and 20×CMC MNA-6 or MNA-7. A difference in retention volume of the protein samples means a difference in size of the protein-detergent complexes (PDCs) formed in the presence of the amphipathic molecules.

T1 sequence (Q8VYR7 whole entry): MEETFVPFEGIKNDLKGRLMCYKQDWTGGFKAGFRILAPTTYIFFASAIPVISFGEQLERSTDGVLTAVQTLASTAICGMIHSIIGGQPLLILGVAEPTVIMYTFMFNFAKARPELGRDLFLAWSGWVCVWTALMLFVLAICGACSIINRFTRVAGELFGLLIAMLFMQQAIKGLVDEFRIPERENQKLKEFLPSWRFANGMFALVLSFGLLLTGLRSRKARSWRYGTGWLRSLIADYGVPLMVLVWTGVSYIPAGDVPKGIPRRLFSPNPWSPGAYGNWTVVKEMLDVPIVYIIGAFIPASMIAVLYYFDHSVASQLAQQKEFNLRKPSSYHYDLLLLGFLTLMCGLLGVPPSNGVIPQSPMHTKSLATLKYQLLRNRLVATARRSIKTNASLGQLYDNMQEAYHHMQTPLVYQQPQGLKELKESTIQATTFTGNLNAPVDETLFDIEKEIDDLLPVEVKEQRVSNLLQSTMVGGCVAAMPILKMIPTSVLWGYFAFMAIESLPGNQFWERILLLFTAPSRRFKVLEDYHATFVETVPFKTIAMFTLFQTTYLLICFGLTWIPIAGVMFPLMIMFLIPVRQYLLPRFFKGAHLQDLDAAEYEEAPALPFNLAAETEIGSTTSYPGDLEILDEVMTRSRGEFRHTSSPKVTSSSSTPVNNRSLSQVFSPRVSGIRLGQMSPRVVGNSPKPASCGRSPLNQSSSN
T2 sequence (P07550 whole entry): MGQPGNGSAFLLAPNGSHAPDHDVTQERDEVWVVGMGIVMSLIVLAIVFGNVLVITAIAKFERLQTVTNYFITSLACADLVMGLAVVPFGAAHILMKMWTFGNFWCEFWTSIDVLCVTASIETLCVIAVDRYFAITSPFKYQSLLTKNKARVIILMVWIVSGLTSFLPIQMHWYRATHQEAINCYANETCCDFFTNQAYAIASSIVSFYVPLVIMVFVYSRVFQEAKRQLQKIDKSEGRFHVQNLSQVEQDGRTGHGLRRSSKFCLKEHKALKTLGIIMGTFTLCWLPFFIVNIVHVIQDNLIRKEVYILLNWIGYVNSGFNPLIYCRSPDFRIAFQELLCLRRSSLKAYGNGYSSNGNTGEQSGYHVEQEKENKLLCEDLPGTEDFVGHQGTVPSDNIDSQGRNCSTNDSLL

| Bor1 extraction efficiency (boron transporter (Bor1); 1% by weight detergent, membranes with Bor1-GFP) | level of Bor1 protein aggregation after heat treatment (boron transporter (Bor1); hFSEC) | CMC value [1] | CMC ([1]; aqueous solution) | CMC (% by weight) ([1]; aqueous solution) | Rh (nm), hydrodynamic radius of micelles [2] | effect on stabilization of Bor1 (boron transporter (Bor1); hFSEC, aggregation level and size of target protein peak) | stability of β2AR [3] | SMILES | EM image background of dissolved β2AR [4] | size of β2AR protein-detergent complexes (PDCs) [5] |
| --- | --- | --- | --- | --- | --- | --- | --- | --- | --- | --- |
| 80% | significant level of protein aggregation | 170 µM | ~0.17 mM | Approximately 0.0087 % by weight | 3.4 nm and 3.4 ± 0.03 nm | – | – | CCCCCCCCCCCCO[C@@H]1O[C@H](CO)[C@@H](O[C@H]2O[C@H](CO)[C@@H](O)[C@H](O)[C@H]2O)[C@H](O)[C@H]1O [DDM, n-dodecyl-β-D-maltopyranoside, reference compound] | – | – |
| – | – | – | ~0.15 mM | – | 2.3 nm and 2.3 ± 0.13 nm | – | – | CCCCCCCCO[C@H]([C@@H](OCCCCCCCC)[C@H](CO[C@@H]1OC(CO)[C@@H](O)C(O)C1O)O[C@@H]1OC(CO)[C@@H](O)C(O)C1O)[C@H](CO[C@@H]1OC(CO)[C@@H](O)C(O)C1O)O[C@@H]1OC(CO)[C@@H](O)C(O)C1O (some centres unmarked) [MNA-1] | – | – |
| – | – | – | ~0.05 mM | – | 2.5 nm and 2.5 ± 0.05 nm | – | – | CCCCCCCCCO[C@H]([C@@H](OCCCCCCCCC)[C@H](CO[C@@H]1OC(CO)[C@@H](O)C(O)C1O)O[C@@H]1OC(CO)[C@@H](O)C(O)C1O)[C@H](CO[C@@H]1OC(CO)[C@@H](O)C(O)C1O)O[C@@H]1OC(CO)[C@@H](O)C(O)C1O (some centres unmarked) [MNA-2] | – | – |
| – | – | – | ~0.015 mM | – | 2.7 nm and 2.7 ± 0.04 nm | – | – | CCCCCCCCCCO[C@H]([C@@H](OCCCCCCCCCC)[C@H](CO[C@@H]1OC(CO)[C@@H](O)C(O)C1O)O[C@@H]1OC(CO)[C@@H](O)C(O)C1O)[C@H](CO[C@@H]1OC(CO)[C@@H](O)C(O)C1O)O[C@@H]1OC(CO)[C@@H](O)C(O)C1O (some centres unmarked) [MNA-3] | – | – |
| – | lower level of Bor1 aggregation than DDM | 2 µM | ~0.002 mM | – | 3.3 nm and 3.3 ± 0.04 nm | best effect on stabilization of the Bor1 | secured for a prolonged period of time | CCCCCCCCCCCCCO[C@H]([C@@H](OCCCCCCCCCCCCC)[C@H](CO[C@@H]1OC(CO)[C@@H](O)C(O)C1O)O[C@@H]1OC(CO)[C@@H](O)C(O)C1O)[C@H](CO[C@@H]1OC(CO)[C@@H](O)C(O)C1O)O[C@@H]1OC(CO)[C@@H](O)C(O)C1O (some centres unmarked) [MNA-6] | uniform background clutter that were relatively smaller in quantity | smaller in size compared to those formed by DDM |
| – | lower level of Borl aggregation than DDM | 1 µM | ~0.001 mM | – | 3.3 nm and 3.3 ± 0.08 nm | – | secured for a prolonged period of time | CCCCCCCCCCCCCCO[C@H]([C@@H](OCCCCCCCCCCCCCC)[C@H](CO[C@@H]1OC(CO)[C@@H](O)C(O)C1O)O[C@@H]1OC(CO)[C@@H](O)C(O)C1O)[C@H](CO[C@@H]1OC(CO)[C@@H](O)C(O)C1O)O[C@@H]1OC(CO)[C@@H](O)C(O)C1O (some centres unmarked) [MNA-7] | uniform background clutter that were relatively smaller in quantity | smaller in size compared to those formed by DDM |
| – | – | – | ~0.003 mM | – | 3.5 nm and 3.5 ± 0.1 nm | – | – | CCCCCCCCCCCCCCCO[C@H]([C@@H](OCCCCCCCCCCCCCCC)[C@H](CO[C@@H]1OC(CO)[C@@H](O)C(O)C1O)O[C@@H]1OC(CO)[C@@H](O)C(O)C1O)[C@H](CO[C@@H]1OC(CO)[C@@H](O)C(O)C1O)O[C@@H]1OC(CO)[C@@H](O)C(O)C1O (some centres unmarked) [MNA-8] | – | – |
| – | – | 1 µM | ~0.001 mM | – | 3.8 nm and 3.8 ± 0.1 nm | – | – | CCCCCCCCCCCCCCCCO[C@H]([C@@H](OCCCCCCCCCCCCCCCC)[C@H](CO[C@@H]1OC(CO)[C@@H](O)C(O)C1O)O[C@@H]1OC(CO)[C@@H](O)C(O)C1O)[C@H](CO[C@@H]1OC(CO)[C@@H](O)C(O)C1O)O[C@@H]1OC(CO)[C@@H](O)C(O)C1O (some centres unmarked) [MNA-9] | – | – |
| – | – | 1 µM | ~0.001 mM | – | 4.1 nm and 4.1 ± 0.2 nm | – | – | CCCCCCCCCCCCCCCCCO[C@H]([C@@H](OCCCCCCCCCCCCCCCCC)[C@H](CO[C@@H]1OC(CO)[C@@H](O)C(O)C1O)O[C@@H]1OC(CO)[C@@H](O)C(O)C1O)[C@H](CO[C@@H]1OC(CO)[C@@H](O)C(O)C1O)O[C@@H]1OC(CO)[C@@H](O)C(O)C1O (some centres unmarked) [MNA-10] | – | – |

| SMILES | Bor1 extraction efficiency (boron transporter (Bor1); 1% by weight detergent, membranes with Bor1-GFP) | level of Bor1 protein aggregation after heat treatment (boron transporter (Bor1); hFSEC) | CMC value [1] | CMC ([1]; aqueous solution) | CMC (% by weight) ([1]; aqueous solution) | Rh (nm), hydrodynamic radius of micelles [2] | effect on stabilization of Bor1 (boron transporter (Bor1); hFSEC, aggregation level and size of target protein peak) | stability of β2AR [3] | EM image background of dissolved β2AR [4] | size of β2AR protein-detergent complexes (PDCs) [5] |
| --- | --- | --- | --- | --- | --- | --- | --- | --- | --- | --- |
| CCCCCCCCCCCO[C@H]([C@@H](OCCCCCCCCCCC)[C@H](CO[C@@H]1OC(CO)[C@@H](O)C(O)C1O)O[C@@H]1OC(CO)[C@@H](O)C(O)C1O)[C@H](CO[C@@H]1OC(CO)[C@@H](O)C(O)C1O)O[C@@H]1OC(CO)[C@@H](O)C(O)C1O (some centres unmarked) [MNA-4] | – | level of protein aggregation similar to DDM | – | ~0.006 mM | – | 2.9 nm and 2.9 ± 0.12 nm | – | – | – | – |
